The target of data set [1] is T1, Human Glucocorticoid receptor (Homo sapiens, UniProt P04150).
T1 construct: expressed in transfected cells; host or cells: human HeLa cells
T1 sequence (P04150 1-777): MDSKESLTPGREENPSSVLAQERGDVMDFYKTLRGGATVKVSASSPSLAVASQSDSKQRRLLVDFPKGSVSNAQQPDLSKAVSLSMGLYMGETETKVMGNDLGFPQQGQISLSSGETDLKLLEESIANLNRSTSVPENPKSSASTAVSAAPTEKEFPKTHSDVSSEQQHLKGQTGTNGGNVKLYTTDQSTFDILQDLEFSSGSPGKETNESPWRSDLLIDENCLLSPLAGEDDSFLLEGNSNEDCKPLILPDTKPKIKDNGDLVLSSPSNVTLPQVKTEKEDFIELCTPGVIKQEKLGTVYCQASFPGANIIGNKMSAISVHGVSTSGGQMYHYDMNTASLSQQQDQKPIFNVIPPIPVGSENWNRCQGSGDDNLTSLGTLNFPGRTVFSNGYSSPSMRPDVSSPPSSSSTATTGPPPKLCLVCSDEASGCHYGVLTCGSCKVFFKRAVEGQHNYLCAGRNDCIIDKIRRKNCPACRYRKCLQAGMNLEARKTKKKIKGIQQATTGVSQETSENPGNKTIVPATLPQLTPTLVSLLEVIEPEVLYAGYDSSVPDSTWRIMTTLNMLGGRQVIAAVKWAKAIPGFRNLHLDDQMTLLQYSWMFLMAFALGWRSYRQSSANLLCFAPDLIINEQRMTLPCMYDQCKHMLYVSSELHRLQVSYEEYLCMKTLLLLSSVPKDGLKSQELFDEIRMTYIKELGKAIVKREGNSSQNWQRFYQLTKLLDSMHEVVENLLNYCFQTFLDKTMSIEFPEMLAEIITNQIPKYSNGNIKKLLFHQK
Nature of the data set: Human glucocorticoid receptor binding (in vitro), [3H]dexamethasone radioligand. The protocol: The activity of test compounds on glucocorticoid receptor was assessed using radioligand binding assays.
The % inhibition was evaluated using a single concentration of test compound and the corresponding radiolabeled ligand. Results are presented as the percent inhibition of specific binding. The values are average of duplicate determinations for each concentration.

Data set [2] deals with croton oil ear edema. Kind of data set: Croton oil ear edema. In kind it is in vivo, Mice (male, CD-1). The conditions noted are these: 1 μg, applied to ear 2 hrs before croton oil. The protocol: Mice (male, CD-1) were made into different groups. A method similar to one reported in the literature was used. Test compounds were dissolved in pyridine-water-acetone (4:2:14) solution 10 μl of this solution of compound or vehicle solution was applied to the left ear of the mice. The right ear of each mouse was applied simultaneously with 10 μl of pyridine: water: acetone (4:2:14) solution. After 2 hrs of compound or vehicle application, 10 μl of croton oil solution was applied to the left ear of all animals. After 6 hr of croton oil treatment the animals were sacrificed; ears were excised and weighed separately.

For data set [3], the system named is cotton pellet granuloma. Nature of the data set: Cotton pellet granuloma test. It is filed as in vivo, SD rats. Here is the method:
SD rats were used for assessing anti-inflammatory activity of test compound using cotton pellet granuloma method. Sterilized cotton pellets weighing 20 mg were prepared. Test compounds were dissolved in acetone so as to get the required quantity for each cotton pellet in 500 μl. Different pellets were impregnated with 500 μl of acetone to contain required quantity of test compounds and allowed to dry. Vehicle control pellets were impregnated with 500 μl acetone.
Rats were made into different groups. Two cotton pellets were surgically implanted into the scapular region of each rat. On sixth day of such implantation, pellets along with granuloma were taken out. Thymus gland was also separated from each animal and weighed. The pellets with granuloma were dried for 20 hrs at 60° C. and weighed. Mean weights of dry granuloma and thymus, body weight gain/100 g body weights were calculated.

Data set [4] relates to liver glycogen deposition. Nature of the data set: Liver glycogen deposition. It is filed as in vivo, Male Sprague Dawley rats. The conditions noted are these: 3 mg/kg intratracheal, 2 doses 24 hrs apart, adrenalectomized rats. Here is the method: Male Sprague Dawley rats, weighing 190-220 g were bilaterally adrenalectomized and maintained on 0.9% saline solution throughout the experiment. On day 5th and 6th of adrenalectomy, animals were made into different groups, test compounds prepared in cold saline (sonicated for 30 min) were instilled intratracheally 2 doses @3 mg/kg, 24 hrs apart. At 15 hrs after the last treatment, animals were sacrificed and livers were excised and weighed. The glycogen content of the livers was determined by anthrone method. Briefly, a weighed quantity of liver tissue was homogenized with 5% trichloroacetic acid, supernatant mixed with ethanol and kept overnight for precipitation. The glycogen thus extracted was estimated as glucose generated after acid hydrolysis by addition of anthrone reagent at 620 nm. Glycogen content was expressed as mg/100 g liver.

Data set [5] has as its system Seasonal Allergic Rhinitis. Kind of data set: Efficacy and safety by intranasal administration, Seasonal Allergic Rhinitis Environmental Exposure Chamber study. It is filed as in vivo, human. The settings on record: patients, intranasal 100, 200 or 400 μg BID, 2 weeks, versus placebo. The protocol: The present study was conducted to determine the efficacy and safety of the compound of the present invention via intranasal route in Seasonal Allergic Rhinitis model. This was a single-centered, randomized, double-blind, placebo-controlled parallel group study.
OBJECTIVE: The objective of the study was to assess the efficacy and safety of the compound of the present invention via intranasal route compared to placebo in alleviating the signs and symptoms of Seasonal Allergic Rhinitis in Environmental Exposure Chamber Model (EEC) after 2 weeks of treatment.
METHODS: In this study, male and female patients aged 18-65 years with history of seasonal allergic rhinitis and positive skin prick test to Dactylis glomerate within 12 months prior to screening and with TNSS score of >6 at least once during the 2 hour-screening EEC were included. Total 159 patients were included in the study and total 154 patients were considered for efficacy analysis. […]
Primary efficacy endpoint was change in TNSS (Total Nasal Symptom Score) in a 4-hour environmental challenge with Dactylis glomerate pollen in an EEC from baseline to Day 15/16. The TNSS was calculated as summation of 4 point severity scale (0=None, 1=Mild, 2=Moderate and 3=Severe) for each symptom (Nasal congestion, Rhinorrhea, Nasal itching and Sneezing). […]

Data set [6] in a line: Oral bioavailability and systemic plasma half-life. The conditions noted are these: in vivo.
For data set [7], the system named is liver glycogen deposition. Kind of data set: Liver glycogen deposition. It is filed as in vivo, Male Sprague Dawley rats. The settings on record: 3 mg/kg intratracheal, 2 doses 24 hrs apart, adrenalectomized rats. This is another data set of the same source.

Molecules are shown by their SMILES.

With `C[C@@H]1CC2C3C[C@H](F)C4=CC(=O)C=C[C@]4(C)[C@@]3(F)[C@@H](O)C[C@]2(C)[C@@]1(OC(=O)c1ccco1)C(=O)SCC#CCOC(=O)CC(C)(C)F` (stereo partly drawn) [Formula I, S-[4-(3-Fluoro-3-methylbutyryloxy)but-2-ynyl]6α,9α-difluoro-17α-(furan-2-yl)carbonyloxy-11β-hydroxy-16α-methyl-3-oxoandrosta-1,4-diene-17β-carbothioate], in data set [1], the IC50 worked out at 2.3 nM and the Ki worked out at 1.24 nM. In addition, the “potency and selectivity towards human glucocorticoid receptor” value in data set [1] (compared with aldosterone, estrogen, progesterone and testosterone receptors) was “good potency and selectivity”. For the same molecule, the “Inhibition of ear edema (%)” value in data set [2] came to 75.5%. In data set [3] (100 mcg/pellet), the “Mean % Inhibition of Granuloma A” value is given as 58.13% and the “Thymus wt. (% Decrease) B” value turned out to be 4.67%. Also, the “thymus involution and body weight gain (systemic side effect markers)” value in data set [3] (even at 100 mcg per pellet) is recorded as “insignificant”. In data set [4], this molecule had a Glycogen content of 10.68 mg/100 g liver. In data set [5], the “primary and secondary efficacy endpoints (change in TNSS, TNSS subscales, nasal secretion)” value is on record as “statistically superior to the placebo”; the “safety profile (treatment-emergent adverse events)” value is listed as “no significant difference in the safety profile”. Besides, the systemic plasma half-life entry in data set [6] is “short systemic plasma half-life”. The oral bioavailability entry in data set [6] (po) is on record as “low oral bioavailability”. Moreover, in data set [7], the “% Inhibition of thymus” value amounted to 26.15%.

As a reminder, the IC50 is the concentration that inhibits the measured activity by half. Higher therefore signals weaker potency. A word on the Ki: it is a dissociation constant, usually derived from enzyme kinetics or from competition with a known ligand.

The values are drawn from patent publication US9458187B2, “Methods for treatment of inflammatory conditions using S-[4-(3-fleuro-3-methylbutyryloxy)but-2-ynyl]6α, 9α-difluoro-17α-(furan-2-yl) carbonyloxy-11β-hydroxy-16α-methyl-3-oxoandrosta-1,4-diene-17β-carbothioate” (Sun Pharma Advanced Research Company Limited, priority 2013, dated 2016).
